Consider 28 compounds from patent US5482967A, “Condensed heterocyclic compounds, their production and use” (Takeda Chemical Industries, Ltd., priority 1992, dated 1996).

pIC50: −log10 of the molar value.

The target of the experiment is substance P receptor (Homo sapiens, UniProt P25103). The experiment is described as follows: Radioligand receptor binding inhibitory assay using receptor from human lymphoblast cells (IM-9), 125I-BHSP. As to conditions: IM-9 receptor, 25° C., 30 minutes. The procedure:
The method of A. Margaret et al. [Molecular Pharmacology 42, 458 (1992)] was modified and used. The receptor was prepared from human lymphoblast cells (IM-9). IM-9 cells were grown in 175 cm^2 tissue culture flasks (100 ml×10) at a density approximately 2×10^5 /ml of RPMI 1640 with L-glutamine, 10% (V/V) heat inactivated fetal calf serum, penicillin (100 u/ml), and streptomycin (100 μg/ml) at 37° C. in 5% CO2 /95% air for 3 days. IM-9 cells were obtained by centrifugation at 500×g for 5 minutes at 5° C. The pellet obtained was washed once with phosphate buffer (Flow Laboratories, CAT No. 28-103-05), homogenized using Polytron homogenizer (Kinematika, Germany) in 30 ml of 50 mM Tris-HCl buffer containing 120 mM NaCl, 5 mM KCl, 2 μg/ml phenylmethyl sulfonyl fluoride, and 1 mM ethylenediamine tetra-acetic acid and then centrifuged at 40,000×g for 20 minutes. The residue was washed twice with 30 ml of buffer described above, and preserved frozen (-80° C.).
The above specimen was suspended in a reaction buffer (50 mM Tris-HCl buffer (pH 7.4), 0.02% bovine serum albumin, 1 mM phenylmethylsulfonyl fluoride, 2 μg/ml chymostatin, 40 μg/ml bacitracin, 3 mM manganese chloride) at a protein concentration of 1.5 mg/ml and a 100 μl portion of the suspension was used in the reaction. After addition of the sample and 125I-BHSP (0.46 KBq), the reaction was conducted in 0.2 ml of reaction buffer at 25° C. for 30 minutes. The amount of nonspecific binding was determined by adding substance P at a final concentration of 2×10^-6 M. After the reaction, using a cell harvester (290PHD, Cambridge Technology, Inc., England), rapid filtration was carried out through a glass filter (GF/B, Whatman, U.S.A.) to stop the reaction. After washing three times with 250 μl of 50 mM Tris-HCl buffer (pH 7.4) containing 0.02% bovine serum albumin, the radioactivity remaining on the filter was measured with a gamma counter. Before use, the filter was immersed in 0.1% polyethyleneimine for 24 hours and air-dried.

substance P receptor, sequence (P25103 whole entry): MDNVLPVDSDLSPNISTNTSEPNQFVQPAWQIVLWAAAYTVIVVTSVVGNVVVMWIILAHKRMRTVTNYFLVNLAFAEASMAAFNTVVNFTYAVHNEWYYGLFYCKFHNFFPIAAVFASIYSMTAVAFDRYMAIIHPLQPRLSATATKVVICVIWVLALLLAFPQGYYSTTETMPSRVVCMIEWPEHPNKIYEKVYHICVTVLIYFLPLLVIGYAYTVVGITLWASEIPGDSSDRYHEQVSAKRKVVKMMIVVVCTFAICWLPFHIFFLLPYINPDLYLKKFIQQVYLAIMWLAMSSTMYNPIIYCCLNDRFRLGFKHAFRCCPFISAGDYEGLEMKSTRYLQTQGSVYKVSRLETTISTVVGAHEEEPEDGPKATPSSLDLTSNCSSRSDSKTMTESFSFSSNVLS

Usually pIC50 stands for the negative decadic logarithm of the IC50, by convention in mol/L. Higher therefore signals a low IC50. `CN(Cc1cc(C(F)(F)F)cc(C(F)(F)F)c1)C(=O)[C@H]1[C@@H](c2ccccc2)c2ccccc2C(=O)N1C` (relative stereo) [Example 279, 3,4-cis-N-[3,5-Bis(trifluoromethyl)benzyl]-1,2,3,4-tetrahydro-N-2-dimethyl-1-oxo-4-phenyl-3-isoquinolinecarboxamide]: the negative logarithm of the IC50 (pIC50) is 7.47. For `CN(Cc1cc(C(F)(F)F)cc(C(F)(F)F)c1)C(=O)[C@H]1[C@H](c2ccc(F)cc2)c2ccccc2C(=O)N1C` (relative stereo) [Example 280, 3,4-trans-N-[3,5-Bis(trifluoromethyl)benzyl]-4-(4-fluorophenyl)-1,2,3,4-tetrahydro-N,2-dimethyl-1-oxo-3-isoquinolinecarboxamide], the pIC50 is 7.24. Against the preceding compound, the pIC50 is 0.23 log units lower. Take `CN(Cc1cc(C(F)(F)F)cc(C(F)(F)F)c1)C(=O)[C@@H]1OC(=O)c2ccccc2[C@@H]1c1ccccc1` (relative stereo) [Example 281, 3,4-cis-N-[3,5-Bis(trifluoromethyl)benzyl]-3,4-dihydro-N-methyl-1-oxo-4-phenyl-1H-2-benzopyran-3-carboxamide]: the pIC50 was 7.44.

For the compound `Cc1ccccc1-c1c(C(=O)NCc2cc(C(F)(F)F)cc(C(F)(F)F)c2)n(C)c(=O)c2ccccc12` [Example 101, N-[3,5-Bis(trifluoromethyl)benzyl]-1,2-dihydro-2-methyl-4-(2-methylphenyl)-1-oxo-3-isoquinolinecarboxamide], the pIC50 is 8.60.

Compound `Cc1ccccc1-c1c(C(=O)N(C)Cc2ccccc2)n(C)c(=O)c2ccccc12` [Example 103, N-Benzyl-1,2-dihydro-N,2-dimethyl-4-(2-methylphenyl)-1-oxo-3-isoquinolinecarboxamide] had a negative-log IC50 (pIC50) of 7.47. `COc1ccccc1CN(C)C(=O)c1c(-c2ccccc2C)c2ccccc2c(=O)n1C` [Example 104, 1,2-Dihydro-N-(2-methoxybenzyl)-N,2-dimethyl-4-(2-methylphenyl)-1-oxo-3-isoquinolinecarboxamide]: the pIC50 was 7.80.

`Cc1ccccc1-c1c(C(=O)N(C)Cc2ccccc2Cl)n(C)c(=O)c2ccccc12` [Example 105, N-(2-Chlorobenzyl)-1,2-dihydro-N,2-dimethyl-4-(2-methylphenyl)-1-oxo-3-isoquinolinecarboxsmide] showed a pIC50 of 7.72. The compound `Cc1cc(C)cc(CN(C)C(=O)c2c(-c3ccccc3C)c3ccccc3c(=O)n2C)c1` [Example 106, 1,2-Dihydro-N-(3,5-dimethylbenzyl)-N,2-dimethyl-4-(2-methylphenyl)-1-oxo-3-isoquinolinecarboxamide] had a pIC50 of 7.52. On to `CCN(Cc1ccccc1OC)C(=O)c1c(-c2ccccc2C)c2ccccc2c(=O)n1C` [Example 107, N-Ethyl-1,2-dihydro-N-(2-methoxybenzyl)-2-methyl-4-(2-methylphenyl)-1-oxo-3-isoquinolinecarboxamide], for which the pIC50 was 7.47. As for `COc1ccccc1CN(C)C(=O)c1c(-c2ccccc2)c2ccccc2c(=O)n1C` [Example 108, 1,2-Dihydro-N-(2-methoxybenzyl)-N,2-dimethyl-1-oxo-4-phenyl-3-isoquinolinecarboxamide], the pIC50 is 7.52. The compound `COc1ccc(CNC(=O)c2c(-c3ccccc3)c3cc(C)c(C)cc3c(=O)n2C)cc1` [Example 109, 1,2-Dihydro-N-(4-methoxybenzyl)-2,6,7-trimethyl-1-oxo-4-phenyl-3-isoquinolinecarboxamide] had a pIC50 of 7.30. Compared with the last compound, the pIC50 is 0.22 log units lower. `COc1ccccc1CNC(=O)c1c(-c2ccccc2)c2cc(C)c(C)cc2c(=O)n1C` [Example 110, 1,2-Dihydro-N-(2-methoxybenzyl)-2,6,7-trimethyl-1-oxo-4-phenyl-3-isoquinolinecarboxamide] showed a pIC50 of 7.05.

`COc1ccccc1CN(C)C(=O)c1c(-c2ccccc2)c2cc(C)c(C)cc2c(=O)n1C` [Example 111, 1,2-Dihydro-N-(2-methoxybenzyl)-N,2,6,7-tetramethyl-1-oxo-4-phenyl-3-isoquinolinecarboxamide] had a pIC50 of 7.01. This pIC50 and that of the compound before are within 0.2 log units of each other. In turn, `Cc1cc2c(-c3ccccc3)c(C(=O)N(C)Cc3cc(C(F)(F)F)cc(C(F)(F)F)c3)n(C)c(=O)c2cc1C` [Example 112, N-[3,5-Bis(trifluoromethyl)benzyl]-1,2-dihydro-N,2,6,7-tetramethyl-1-oxo-4-phenyl-3-isoquinolinecarboxamide] had a pIC50 of 8.08. In turn, `Cc1cccc(C)c1-c1c(C(=O)NCc2cc(C(F)(F)F)cc(C(F)(F)F)c2)n(C)c(=O)c2ccccc12` [Example 122, N-[3,5-Bis(trifluoromethyl)benzyl]-1,2-dihydro-2-methyl-4-(2,6-dimethylphenyl)-1-oxo-3-isoquinolinecarboxamide] showed a pIC50 of 7.09. This pIC50 is 0.99 log units lower than that of the compound before. To `Cc1cccc(C)c1-c1c(C(=O)N(C)Cc2cc(C(F)(F)F)cc(C(F)(F)F)c2)n(C)c(=O)c2ccccc12` [Example 123, N-[3,5-Bis(trifluoromethyl)benzyl]-1,2-dihydro-4-(2,6-dimethylphenyl)-N,2-dimethyl-1-oxo-3-isoquinolinecarboxamide] belongs 7.34.

In the case of `Cc1ccc(CNC(=O)c2c(-c3ccccc3)c3cc(C)c(C)cc3c(=O)n2C)cc1` [Example 127, 1,2-Dihydro-2,6,7-trimethyl-N-(4-methylbenzyl)-1-oxo-4-phenyl-3-isoquinolinecarboxamide], the pIC50 is 8.06. Regarding `COc1cccc(CNC(=O)c2c(-c3ccccc3)c3cc(C)c(C)cc3c(=O)n2C)c1` [Example 128, 1,2-Dihydro-N-(3-methoxybenzyl)-2,6,7-trimethyl-1-oxo-4-phenyl-3-isoquinolinecarboxamide], the pIC50 was 7.06.

Compound `Cc1cc2c(-c3ccccc3)c(C(=O)NCc3cccc(Cl)c3)n(C)c(=O)c2cc1C` [Example 130, N-(3-Chlorobenzyl)-1,2-dihydro-2,6,7-trimethyl-1-oxo-4-phenyl-3-isoquinolinecarboxamide] gave a pIC50 of 7.42. Compound `Cc1cc2c(-c3ccccc3)c(C(=O)NCc3ccccc3Cl)n(C)c(=O)c2cc1C` [Example 131, N-(2-Chlorobenzyl)-1,2-dihydro-2,6,7-trimethyl-1-oxo-4-phenyl-3-isoquinolinecarboxamide] had a pIC50 of 7.07.

Compound `Cn1c(C(=O)NCc2cc(C(F)(F)F)cc(C(F)(F)F)c2)c(-c2ccccc2)c2ccccc2c1=O` [Example 156, N-[3,5-Bis(trifluoromethyl)benzyl]-1,2-dihydro-2-methyl-1-oxo-4-phenyl-3-isoquinolinecarboxamide] gave a pIC50 of 8.21.

`CN(Cc1cc(C(F)(F)F)cc(C(F)(F)F)c1)C(=O)c1c(-c2ccccc2)c2ccccc2c(=O)n1C` [Example 157, N-[3,5-Bis(trifluoromethyl)benzyl]-1,2-dihydro-N,2-dimethyl-1-oxo-4-phenyl-3-isoquinolinecarboxamide] gave a pIC50 of 8.92. To `COc1ccccc1-c1c(C(=O)NCc2cc(C(F)(F)F)cc(C(F)(F)F)c2)n(C)c(=O)c2ccccc12` [Example 158, N-[3,5-Bis(trifluoromethyl)benzyl]-1,2-dihydro-4-(2-methoxyphenyl)-2-methyl-1-oxo-3-isoquinolinecarboxamide] belongs 7.11; to `COc1ccccc1-c1c(C(=O)N(C)Cc2cc(C(F)(F)F)cc(C(F)(F)F)c2)n(C)c(=O)c2ccccc12` [Example 159, N-[3,5-Bis(trifluoromethyl)benzyl]-1,2-dihydro-4-(2-methoxyphenyl)-N,2-dimethyl-1-oxo-3-isoquinolinecarboxamide], 7.92. As to `Cn1c(C(=O)NCc2cc(C(F)(F)F)cc(C(F)(F)F)c2)c(-c2ccc(F)cc2)c2ccccc2c1=O` [Example 165, N-[3,5-Bis(trifluoromethyl)benzyl]-4-(4-fluorophenyl)-1,2-dihydro-2-methyl-1-oxo-3-isoquinolinecarboxamide], the pIC50 is 7.62. Consider `CN(Cc1cc(C(F)(F)F)cc(C(F)(F)F)c1)C(=O)c1c(-c2ccc(F)cc2)c2ccccc2c(=O)n1C` [Example 166, N-[3,5-Bis(trifluoromethyl)benzyl]-4-(4-fluorophenyl)-1,2-dihydro-N,2-dimethyl-1-oxo-3-isoquinolinecarboxamide], for which the pIC50 is 9.46. The value for `Cc1ccc(CNC(=O)c2c(-c3ccccc3)c3ccccc3c(=O)n2C)cc1` [Example 170, 1,2-Dihydro-2-methyl-N-(4-methylbenzyl)-1-oxo-4-phenyl-3isoquinolinecarboxamide] was 7.72. On to `Cn1c(C(=O)NCc2ccc(C(F)(F)F)cc2)c(-c2ccccc2)c2ccccc2c1=O` [Example 171, 1,2-Dihydro-2-methyl-1-oxo-4-phenyl-N-[4-(trifluoromethyl)benzyl]-3-isoquinolinecarboxamide], for which the pIC50 was 7.70. The pIC50 values of the last two compounds are within 0.2 log units of each other.
